Columns and labels:
[1] = biological target: Angiotensin-converting enzyme (Homo sapiens, UniProt P12821); experiment: Inhibition of ACE
Neprilysin = Neprilysin (Homo sapiens, UniProt P08473); experiment: Inhibition of NEP
[2] = Inhibition of ECE

Row | SMILES | IC50 [1] [nM] | IC50 (Neprilysin) [nM] | IC50 [2] [nM]
1 | O=C(O)[C@H](Cc1ccc2ccccc2c1)NC(=O)N(Cc1ccc2c(c1)Cc1ccccc1-2)C[C@H](O)C(=O)O | 150 | 19000 | 
2 | CC(C)CN(CCP(=O)(O)O)C(=O)N[C@@H](Cc1ccc2ccccc2c1)C(=O)O |  | 6 | 
3 | CC(C)CN(C[C@H](O)C(=O)O)C(=O)N[C@@H](Cc1ccc(O)c(O)c1)C(=O)O | 23 | 19 | 
4 | CC(C)(C)CN(C[C@H](O)C(=O)O)C(=O)N[C@@H](Cc1ccc2ccccc2c1)C(=O)O | 191 | 5 | 
5 | CC(C)CN(C[C@H](O)C(=O)O)C(=O)N[C@@H](Cc1cccc2ccccc12)C(=O)O | 110 | 9 | 
6 | CC(C)CN(C[C@H](O)C(=O)O)C(=O)N[C@@H](Cc1ccc2ccccc2c1)C(=O)O | 52 | 4 | 2500

The next lines start with the values.

Row | IC50 [1] [nM] | IC50 (Neprilysin) [nM] | IC50 [2] [nM] | SMILES
7 | 103 | 8 | 16500 | CC(C)CN(C[C@H](O)C(=O)O)C(=O)N[C@@H](Cc1c[nH]c2ccccc12)C(=O)O
8 |  | 36 |  | CCC(CC)CN(C[C@H](O)C(=O)O)C(=O)N[C@@H](Cc1ccc2ccccc2c1)C(=O)O
9 | 39 |  |  | O=C1c2ccccc2-c2ccc(CN(C[C@H](O)C(=O)O)C(=O)N[C@@H](Cc3ccc4ccccc4c3)C(=O)O)cc21
10 | 60 | 6 |  | CC(C)CN(C[C@H](O)C(=O)O)C(=O)N[C@@H](Cc1ccc(O)cc1)C(=O)O
11 | 1980 | 650 | 600 | O=C(O)[C@H](Cc1ccc2ccccc2c1)NC(=O)N(CCN1C(=O)c2cccc3cccc(c23)C1=O)C[C@H](O)C(=O)O
12 | 40 |  |  | O=C1c2ccccc2C(=O)c2cc(CN(C[C@H](O)C(=O)O)C(=O)N[C@@H](Cc3ccc4ccccc4c3)C(=O)O)ccc21
13 | 35 | 10 | 3490 | CC(C)CN(C[C@H](O)C(=O)O)C(=O)N[C@@H](Cc1ccc(-c2ccccc2)cc1)C(=O)O
14 | 29 | 2 |  | CC(C)CN(CP(=O)(O)O)C(=O)N[C@@H](Cc1ccc2ccccc2c1)C(=O)O
